From patent publication US20040171090A1, “Anti-tumor antigen against HTLV-I tumor or antigen epitope thereof” (priority 2001, published 2004) come the findings set out here.

Peptide text beside a SMILES is read from it.

For series [1], the system named is HTLV-I-infected tumor cells, FPM1-V1AX. The experiment in a line: Vaccine effect: splenic T cells of immunized nu/+ rats transferred to nu/nu rats given FPM1-V1AX, tumor volume. The conditions noted are these: nu/+ rats immunized subcutaneously twice, two-week interval, 100 μg peptide and/or ISS-ODN. Format: in vivo, rat.
The test system of series [2] is HTLV-I-specific CTL cell lines. Conditions: for cytotoxic activity of HTLV-I-specific CTL cell lines against target cells sensitized with peptide (FIG. 6): 15-24 mer peptides 10 μM, 37° C. 1 hour, release assay 6 hours; for cytotoxic activity of HTLV-I-specific CTL cell lines against target cells sensitized with peptide (FIG. 6) / cytotoxicity of long-term-cultured CTL cell lines against target cells sensitized with peptide (FIG. 7) / peptide concentration necessary to induce cytotoxic activity of the same extent as Tax 180-188: E/T 10; for cytotoxicity of long-term-cultured CTL cell lines against target cells sensitized with peptide (FIG. 7): peptides 10 μM; for peptide concentration necessary to induce cytotoxic activity of the same extent as Tax 180-188: G14 cells treated 1 hour with serially diluted peptide.

Regarding 5′-TGACTGTGAACGTTCGAGATGA-3′ [ISS-ODN], in series [1], the “suppression effect on tumor proliferation by splenic T cells from immunized rats (tumor volume, FIG. 12)” value is on record as “not recognized”.
`CC[C@H](C)[C@H](NC(=O)[C@H](CCCCN)NC(=O)[C@H](Cc1ccc(O)cc1)NC(=O)[C@H](CC(C)C)NC(=O)[C@H](CC(C)C)NC(=O)[C@H](CCC(=O)O)NC(=O)[C@H](CCC(=O)O)NC(=O)[C@@H](NC(=O)[C@H](CCCNC(=N)N)NC(=O)[C@H](CCCCN)NC(=O)[C@H](Cc1ccc(O)cc1)NC(=O)[C@@H]1CCCN1C(=O)[C@@H](NC(=O)[C@H](CC(N)=O)NC(=O)[C@@H](NC(=O)[C@H](CC(C)C)NC(=O)[C@H](Cc1ccccc1)NC(=O)[C@H](C)NC(=O)CNC(=O)[C@H](CC(C)C)NC(=O)[C@H](CCC(N)=O)NC(=O)CN)[C@@H](C)O)C(C)C)[C@@H](C)CC)C(=O)N[C@@H](CO)C(=O)N[C@@H](CC(C)C)C(=O)O` [Tax 177-200]: in series [2] (G14 cells), the “cytotoxic activity of HTLV-I-specific CTL cell lines against target cells sensitized with peptide (FIG. 6)” value (from here on “cytotoxic activity … (FIG. 6)”) is “effectively dissolve” and the “cytotoxicity of long-term-cultured CTL cell lines against target cells sensitized with peptide (FIG. 7)” value was “notably dissolved”.
As to `CC(C)C[C@H](NC(=O)[C@H](Cc1ccccc1)NC(=O)[C@H](C)N)C(=O)N[C@H](C(=O)N[C@@H](CC(N)=O)C(=O)N[C@H](C(=O)N1CCC[C@H]1C(=O)N[C@@H](Cc1ccc(O)cc1)C(=O)N[C@@H](CCCCN)C(=O)O)C(C)C)[C@@H](C)O` [Tax 181-189] (H-AFLTNVPYK-OH; N-terminus and C-terminus assumed), the “peptide concentration necessary to induce cytotoxic activity of the same extent as Tax 180-188” value in series [2] turned out to be 1 µM.
For `CC[C@H](C)[C@H](NC(=O)[C@H](CCCNC(=N)N)NC(=O)[C@H](CCCCN)NC(=O)[C@H](Cc1ccc(O)cc1)NC(=O)[C@@H]1CCCN1C(=O)[C@@H](NC(=O)[C@H](CC(N)=O)NC(=O)[C@@H](NC(=O)[C@H](CC(C)C)NC(=O)[C@H](Cc1ccccc1)NC(=O)[C@H](C)N)[C@@H](C)O)C(C)C)C(=O)N[C@@H](CCC(=O)O)C(=O)N[C@@H](CCC(=O)O)C(=O)N[C@@H](CC(C)C)C(=O)N[C@@H](CC(C)C)C(=O)O` [Tax 181-195], in series [2] (G14 cells), the “cytotoxic activity … (FIG. 6)” value is recorded as “effectively dissolve” and the “cytotoxicity of long-term-cultured CTL cell lines against target cells sensitized with peptide (FIG. 7)” value is recorded as “notably dissolved”.
With `CC(C)C[C@H](NC(=O)[C@@H](N)Cc1ccccc1)C(=O)N[C@H](C(=O)N[C@@H](CC(N)=O)C(=O)N[C@H](C(=O)N1CCC[C@H]1C(=O)N[C@@H](Cc1ccc(O)cc1)C(=O)N[C@@H](CCCCN)C(=O)N[C@@H](CCCNC(=N)N)C(=O)O)C(C)C)[C@@H](C)O` [Tax 182-190] (H-FLTNVPYKR-OH; N-terminus and C-terminus assumed), in series [2], the “peptide concentration necessary to induce cytotoxic activity of the same extent as Tax 180-188” value was 10 µM.
Take LGAFLTNVP [Tax 179-187]: the “CTL sensitivity of target cells sensitized with 9 amino acid synthetic peptides (FIG. 8)” value in series [2] (G14 cells, 9 mer peptides, same method as for the 15-24 mers) is reported as “exhibited CTL sensitivity”.
Turning to “Tax 17-40: partially overlapping synthetic peptide (15-24 mers), partial peptide in the Tax protein (VYVFGDCVQGDWCPISGGLCSARL)”, the “cytotoxic activity … (FIG. 6)” value in series [2] (G14 cells) is recorded as “low cytotoxic activity”.
Regarding “Tax 33-56: partially overlapping synthetic peptide (15-24 mers), partial peptide in the Tax protein (GGLCSARLHRHALLATCPEHQITW)”, in series [2] (G14 cells), the “cytotoxic activity … (FIG. 6)” value is “low cytotoxic activity”.
Turning to “Tax 81-104: partially overlapping synthetic peptide (15-24 mers), partial peptide in the Tax protein (QRTSKTLKVLTPPITHTTPNIPPS)”, the “cytotoxic activity … (FIG. 6)” value in series [2] (G14 cells) was “low cytotoxic activity”.
As to “Tax 97-120: partially overlapping synthetic peptide (15-24 mers), partial peptide in the Tax protein (TTPNIPPSFLQAMRKYSPFRNGYM)”, in series [2] (G14 cells), the “cytotoxic activity … (FIG. 6)” value was “low cytotoxic activity”.
